The source made the active and inactive calls. The rule behind the calls is not given here. Where a SMILES comes first, the peptide text is derived from it. Bridges are numbered along the chain shown (N, C = ends).
What was measured:
[1] = molecular target: Frizzled-2 (Homo sapiens) (UniProt Q14332); assay: Antagonist activity at Wnt3a-stimulated frizzled-2 (unknown origin) expressed in human HEK293superTOP flash cells incubated for 24 hrs by luciferase reporter gene assay; format: functional, cell-based; details: HEK293
[2] = molecular target: Frizzled-1 (Homo sapiens) (UniProt Q9UP38); assay: Antagonist activity at Wnt3a-stimulated frizzled-1 (unknown origin) expressed in human HEK293superTOP flash cells incubated for 24 hrs by luciferase reporter gene assay; format: functional, cell-based; details: HEK293
[3] = molecular target: Frizzled-2 (Homo sapiens) (UniProt Q14332); assay: Agonist activity at frizzled-2 (unknown origin) expressed in human HEK293superTOP flash cells by luciferase reporter gene assay; format: functional, cell-based; details: HEK293
[4] = molecular target: Frizzled-1 (Homo sapiens) (UniProt Q9UP38); assay: Agonist activity at frizzled-1 (unknown origin) expressed in human HEK293superTOP flash cells by luciferase reporter gene assay; format: functional, cell-based; details: HEK293
[5] = molecular target: T1, Frizzled-4 (Homo sapiens) (UniProt Q9ULV1); assay: Agonist activity at frizzled-4 (unknown origin) expressed in human HEK293superTOP flash cells by luciferase reporter gene assay; format: functional, cell-based; details: HEK293
T1 sequence (whole entry): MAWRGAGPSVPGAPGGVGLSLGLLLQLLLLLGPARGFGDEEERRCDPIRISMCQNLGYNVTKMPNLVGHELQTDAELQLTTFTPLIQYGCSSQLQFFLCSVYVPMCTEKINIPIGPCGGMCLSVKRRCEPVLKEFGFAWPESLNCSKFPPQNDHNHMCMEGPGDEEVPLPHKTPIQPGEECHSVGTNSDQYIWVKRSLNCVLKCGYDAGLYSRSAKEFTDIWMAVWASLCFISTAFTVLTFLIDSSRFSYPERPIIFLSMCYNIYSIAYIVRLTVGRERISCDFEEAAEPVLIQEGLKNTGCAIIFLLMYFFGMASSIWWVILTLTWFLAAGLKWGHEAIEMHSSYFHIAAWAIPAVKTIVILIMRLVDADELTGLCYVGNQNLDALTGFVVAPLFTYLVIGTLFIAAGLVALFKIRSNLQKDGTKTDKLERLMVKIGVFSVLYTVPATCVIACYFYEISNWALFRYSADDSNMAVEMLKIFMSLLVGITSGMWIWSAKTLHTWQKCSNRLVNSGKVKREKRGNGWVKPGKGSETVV

[6] = molecular target: Frizzled-5 (Homo sapiens) (UniProt Q13467); assay: Agonist activity at frizzled-5 (unknown origin) expressed in human HEK293superTOP flash cells by luciferase reporter gene assay; format: functional, cell-based; details: HEK293
[7] = molecular target: Frizzled-1 (Rattus norvegicus) (UniProt Q08463); assay: Agonist activity at rat frizzled-1 expressed in human HEK293superTOP flash cells by luciferase reporter gene assay; format: cell-based; details: HEK293
[8] = molecular target: Frizzled-2 (Rattus norvegicus) (UniProt Q08464); assay: Agonist activity at rat frizzled-2 expressed in human HEK293superTOP flash cells by luciferase reporter gene assay; format: cell-based; details: HEK293
[9] = molecular target: Frizzled-1 (Rattus norvegicus) (UniProt Q08463); assay: Antagonist activity at Wnt3a-stimulated rat frizzled-1 expressed in human HEK293superTOP flash cells at 10 nM incubated for 24 hrs by luciferase reporter gene assay relative to control; format: cell-based; details: HEK293, filed as antagonist
[10] = molecular target: Frizzled-2 (Rattus norvegicus) (UniProt Q08464); assay: Antagonist activity at Wnt3a-stimulated rat frizzled-2 expressed in human HEK293superTOP flash cells at 10 nM incubated for 24 hrs by luciferase reporter gene assay relative to control; format: cell-based; details: HEK293, filed as antagonist
[11] = molecular target: Frizzled-1 (Rattus norvegicus) (UniProt Q08463); assay: Antagonist activity at Wnt3a-stimulated rat frizzled-1 expressed in CHO cells incubated for 24 hrs by luciferase reporter gene assay relative to control; format: cell-based; details: filed as antagonist, concentration not given here
[12] = molecular target: Frizzled-2 (Rattus norvegicus) (UniProt Q08464); assay: Antagonist activity at Wnt3a-stimulated rat frizzled-2 expressed in CHO cells incubated for 24 hrs by luciferase reporter gene assay relative to control; format: cell-based; details: filed as antagonist, concentration not given here
[13] = molecular target: Frizzled-1 (Rattus norvegicus) (UniProt Q08463); assay: Antagonist activity at Wnt3a-stimulated rat frizzled-1 expressed in African green monkey COS7 cells incubated for 24 hrs by luciferase reporter gene assay relative to control; format: cell-based; details: filed as antagonist, concentration not given here
[14] = molecular target: Frizzled-2 (Rattus norvegicus) (UniProt Q08464); assay: Antagonist activity at Wnt3a-stimulated rat frizzled-2 expressed in African green monkey COS7 cells incubated for 24 hrs by luciferase reporter gene assay relative to control; format: cell-based; details: filed as antagonist, concentration not given here
[15] = molecular target: Frizzled-1 (Rattus norvegicus) (UniProt Q08463); assay: Agonist activity at rat frizzled-1 expressed in CHO cells by luciferase reporter gene assay; format: cell-based
[16] = molecular target: Frizzled-2 (Rattus norvegicus) (UniProt Q08464); assay: Agonist activity at rat frizzled-2 expressed in CHO cells by luciferase reporter gene assay; format: cell-based
[17] = molecular target: Frizzled-1 (Rattus norvegicus) (UniProt Q08463); assay: Agonist activity at rat frizzled-1 expressed in African green monkey COS7 cells by luciferase reporter gene assay; format: cell-based
[18] = molecular target: Frizzled-2 (Rattus norvegicus) (UniProt Q08464); assay: Agonist activity at rat frizzled-2 expressed in African green monkey COS7 cells by luciferase reporter gene assay; format: cell-based
Frizzled-1 = Frizzled-1 (Rattus norvegicus, UniProt Q08463); assay: Antagonist activity at Wnt3a-stimulated rat frizzled-1 expressed in human HEK293superTOP flash cells incubated for 24 hrs by luciferase reporter gene assay; format: cell-based, HEK293
Frizzled-2 = Frizzled-2 (Rattus norvegicus, UniProt Q08464); assay: Antagonist activity at Wnt3a-stimulated rat frizzled-2 expressed in human HEK293superTOP flash cells incubated for 24 hrs by luciferase reporter gene assay; format: cell-based, HEK293
[19] = molecular target: Frizzled-1 (Rattus norvegicus) (UniProt Q08463); assay: Antagonist activity at Wnt3a-stimulated rat frizzled-1 expressed in CHO cells up to 10 uM incubated for 24 hrs by luciferase reporter gene assay; format: cell-based; details: dose microM <=10, time 24.0 hrs
[20] = molecular target: Frizzled-2 (Rattus norvegicus) (UniProt Q08464); assay: Antagonist activity at Wnt3a-stimulated rat frizzled-2 expressed in […] cells up to 10 uM incubated for 24 hrs by luciferase reporter gene assay; format: cell-based; details: dose microM <=10, time 24.0 hrs
[21] = molecular target: Frizzled-1 (Rattus norvegicus) (UniProt Q08463); assay: Antagonist activity at Wnt3a-stimulated rat frizzled-1 expressed in African green monkey COS7 cells up to 10 uM incubated for 24 hrs by luciferase reporter gene assay; format: cell-based; details: dose microM <=10, time 24.0 hrs
[22] = molecular target: Frizzled-2 (Rattus norvegicus) (UniProt Q08464); assay: Antagonist activity at Wnt3a-stimulated rat frizzled-2 expressed in African green monkey COS7 cells up to 10 uM incubated for 24 hrs by luciferase reporter gene assay; format: cell-based; details: dose microM <=10, time 24.0 hrs
[23] = molecular target: Frizzled-1 (Homo sapiens) (UniProt Q9UP38); assay: Antagonist activity at Wnt3a-stimulaed frizzled-1 (unknown origin) expressed in human HEK293superTOP flash cells at 1 nM incubated for 24 hrs by luciferase reporter gene assay (reference value: 0%); format: functional, cell-based; details: HEK293, filed as antagonist
[24] = molecular target: Frizzled-2 (Homo sapiens) (UniProt Q14332); assay: Antagonist activity at Wnt3a-stimulaed frizzled-2 (unknown origin) expressed in human HEK293superTOP flash cells at 1 nM incubated for 24 hrs by luciferase reporter gene assay (reference value: 0%); format: functional, cell-based; details: HEK293, filed as antagonist
[25] = molecular target: Frizzled-2 (Homo sapiens) (UniProt Q14332); assay: Antagonist activity at Wnt3a-stimulated frizzled-2 (unknown origin) expressed in human HEK293superTOP flash cells at 10 nM incubated for 24 hrs by luciferase reporter gene assay; format: functional, cell-based; details: HEK293
[26] = molecular target: Frizzled-1 (Homo sapiens) (UniProt Q9UP38); assay: Antagonist activity at Wnt3a-stimulated frizzled-1 (unknown origin) expressed in human HEK293superTOP flash cells at 10 nM incubated for 24 hrs by luciferase reporter gene assay; format: functional, cell-based; details: HEK293

Sequence of Frizzled-2 (Homo sapiens) (Q14332 24-565 limits assumed): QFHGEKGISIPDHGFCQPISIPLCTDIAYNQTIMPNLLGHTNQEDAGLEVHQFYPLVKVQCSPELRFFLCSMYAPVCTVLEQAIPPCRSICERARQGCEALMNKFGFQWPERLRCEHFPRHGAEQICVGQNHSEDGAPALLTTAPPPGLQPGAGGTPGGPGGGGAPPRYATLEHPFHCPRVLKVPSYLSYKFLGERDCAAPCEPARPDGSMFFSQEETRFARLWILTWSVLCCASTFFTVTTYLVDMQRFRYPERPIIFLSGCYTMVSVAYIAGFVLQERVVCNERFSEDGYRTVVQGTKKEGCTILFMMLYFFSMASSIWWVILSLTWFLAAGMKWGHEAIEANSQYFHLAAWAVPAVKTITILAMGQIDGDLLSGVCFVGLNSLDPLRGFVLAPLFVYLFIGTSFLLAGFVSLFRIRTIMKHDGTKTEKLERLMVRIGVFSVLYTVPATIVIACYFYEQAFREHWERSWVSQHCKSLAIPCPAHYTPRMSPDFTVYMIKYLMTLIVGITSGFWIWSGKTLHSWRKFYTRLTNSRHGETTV
Sequence of Frizzled-2 (Rattus norvegicus) (Q08464 29-570 limits assumed): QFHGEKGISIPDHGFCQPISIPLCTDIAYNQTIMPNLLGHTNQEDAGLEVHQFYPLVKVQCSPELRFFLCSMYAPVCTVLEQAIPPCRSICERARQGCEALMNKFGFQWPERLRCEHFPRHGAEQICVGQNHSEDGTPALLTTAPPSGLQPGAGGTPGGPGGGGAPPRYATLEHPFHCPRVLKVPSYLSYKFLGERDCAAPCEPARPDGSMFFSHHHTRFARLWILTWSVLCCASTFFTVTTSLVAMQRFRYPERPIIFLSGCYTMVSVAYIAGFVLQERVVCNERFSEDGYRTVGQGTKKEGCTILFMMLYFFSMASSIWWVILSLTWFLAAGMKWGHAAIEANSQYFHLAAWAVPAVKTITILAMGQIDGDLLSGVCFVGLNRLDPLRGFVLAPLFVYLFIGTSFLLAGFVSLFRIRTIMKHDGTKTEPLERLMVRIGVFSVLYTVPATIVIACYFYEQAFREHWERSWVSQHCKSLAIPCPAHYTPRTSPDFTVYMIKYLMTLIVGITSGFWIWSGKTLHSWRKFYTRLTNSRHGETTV
Sequence of Frizzled-1 (Rattus norvegicus) (Q08463 whole entry): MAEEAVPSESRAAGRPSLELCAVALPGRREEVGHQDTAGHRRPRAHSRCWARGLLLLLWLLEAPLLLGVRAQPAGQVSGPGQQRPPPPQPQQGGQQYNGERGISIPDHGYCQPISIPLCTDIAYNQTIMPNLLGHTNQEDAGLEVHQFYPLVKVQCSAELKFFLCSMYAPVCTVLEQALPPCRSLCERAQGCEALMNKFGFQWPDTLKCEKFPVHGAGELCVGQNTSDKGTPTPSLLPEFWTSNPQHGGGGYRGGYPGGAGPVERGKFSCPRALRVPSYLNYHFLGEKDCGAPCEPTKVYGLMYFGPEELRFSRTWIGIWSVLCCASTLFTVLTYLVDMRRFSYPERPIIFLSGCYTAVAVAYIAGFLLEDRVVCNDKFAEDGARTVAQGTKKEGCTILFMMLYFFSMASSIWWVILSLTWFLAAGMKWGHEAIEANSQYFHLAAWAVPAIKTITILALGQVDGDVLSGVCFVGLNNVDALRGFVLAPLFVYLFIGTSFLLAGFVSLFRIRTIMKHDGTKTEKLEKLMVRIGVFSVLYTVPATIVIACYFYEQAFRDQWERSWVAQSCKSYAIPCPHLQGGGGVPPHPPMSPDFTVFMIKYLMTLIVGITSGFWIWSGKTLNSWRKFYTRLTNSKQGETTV
Sequence of Frizzled-1 (Homo sapiens) (Q9UP38 70-647 limits assumed): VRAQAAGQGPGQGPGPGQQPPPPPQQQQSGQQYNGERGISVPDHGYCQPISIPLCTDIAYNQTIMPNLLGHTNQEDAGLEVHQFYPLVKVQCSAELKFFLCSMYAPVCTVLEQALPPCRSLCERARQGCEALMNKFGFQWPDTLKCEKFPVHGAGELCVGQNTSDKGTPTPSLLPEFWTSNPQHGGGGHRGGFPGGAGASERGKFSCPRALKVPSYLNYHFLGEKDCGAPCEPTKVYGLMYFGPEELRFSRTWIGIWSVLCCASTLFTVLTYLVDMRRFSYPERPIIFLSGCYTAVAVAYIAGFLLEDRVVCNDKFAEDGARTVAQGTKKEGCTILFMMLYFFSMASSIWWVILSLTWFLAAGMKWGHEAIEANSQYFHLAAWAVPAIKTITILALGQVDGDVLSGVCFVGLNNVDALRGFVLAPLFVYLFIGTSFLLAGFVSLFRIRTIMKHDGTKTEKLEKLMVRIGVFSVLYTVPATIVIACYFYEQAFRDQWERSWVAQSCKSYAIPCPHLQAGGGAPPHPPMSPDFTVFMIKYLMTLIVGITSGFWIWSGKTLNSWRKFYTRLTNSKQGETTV
Sequence of Frizzled-5 (Homo sapiens) (Q13467 whole entry): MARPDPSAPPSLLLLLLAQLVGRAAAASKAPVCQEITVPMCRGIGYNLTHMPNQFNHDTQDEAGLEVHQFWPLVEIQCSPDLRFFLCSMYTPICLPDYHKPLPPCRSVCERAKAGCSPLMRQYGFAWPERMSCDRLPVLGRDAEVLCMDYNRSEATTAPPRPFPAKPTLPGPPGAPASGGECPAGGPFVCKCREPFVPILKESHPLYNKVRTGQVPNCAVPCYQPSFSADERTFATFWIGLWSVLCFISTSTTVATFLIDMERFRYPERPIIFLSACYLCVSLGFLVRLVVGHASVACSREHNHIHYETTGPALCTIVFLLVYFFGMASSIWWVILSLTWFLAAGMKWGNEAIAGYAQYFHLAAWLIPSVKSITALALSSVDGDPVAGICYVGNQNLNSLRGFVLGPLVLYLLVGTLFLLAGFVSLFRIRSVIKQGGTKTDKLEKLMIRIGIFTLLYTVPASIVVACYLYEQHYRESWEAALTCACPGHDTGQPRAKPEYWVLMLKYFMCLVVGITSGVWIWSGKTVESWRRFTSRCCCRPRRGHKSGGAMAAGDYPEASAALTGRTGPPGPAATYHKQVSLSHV
Sequence of Frizzled-2 (Q08464 whole entry): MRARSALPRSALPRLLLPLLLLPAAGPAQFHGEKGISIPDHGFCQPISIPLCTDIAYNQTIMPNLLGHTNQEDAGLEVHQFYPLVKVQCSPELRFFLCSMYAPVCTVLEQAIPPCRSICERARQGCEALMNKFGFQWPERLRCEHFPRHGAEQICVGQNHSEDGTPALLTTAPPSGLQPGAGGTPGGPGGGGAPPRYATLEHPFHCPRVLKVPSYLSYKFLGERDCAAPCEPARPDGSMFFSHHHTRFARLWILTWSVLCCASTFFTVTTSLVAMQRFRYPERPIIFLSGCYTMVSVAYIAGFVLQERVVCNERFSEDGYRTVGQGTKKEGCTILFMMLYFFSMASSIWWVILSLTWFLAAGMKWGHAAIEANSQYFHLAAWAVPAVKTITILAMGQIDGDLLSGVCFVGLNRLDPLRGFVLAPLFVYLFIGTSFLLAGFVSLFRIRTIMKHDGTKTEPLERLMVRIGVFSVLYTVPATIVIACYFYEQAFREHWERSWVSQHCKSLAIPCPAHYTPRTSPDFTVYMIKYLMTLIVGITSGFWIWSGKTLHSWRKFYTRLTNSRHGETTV
Sequence of Frizzled-1 (Q08463 whole entry): as the sequence (Q08463 whole entry) above

CC(=O)N[C@@H](CS)C(=O)N[C@@H](CCCCN)C(=O)N[C@@H](CS)C(=O)N[C@@H](Cc1cnc[nH]1)C(=O)NCC(=O)N[C@H](C(=O)N[C@@H](CO)C(=O)NCC(=O)N[C@@H](CO)C(=O)N[C@@H](CS)C(=O)N[C@H](C(=O)N[C@H](C(=O)N[C@@H](CCCCN)C(=O)N[C@H](C(=O)N[C@@H](CS)C(=O)N[C@@H](Cc1c[nH]c2ccccc12)C(N)=O)[C@@H](C)O)C(C)C)[C@@H](C)O)C(C)C (Ac-CKCHGVSGSCTVKTCW-NH2)
inhibition [1]: inactive
inhibition [2]: inactive
Activity [3]: inactive
Activity [4]: inactive

CSCC[C@H](NC(=O)CNC(=O)[C@H](CO)NC(=O)[C@H](CCCCN)NC(=O)[C@H](CC(N)=O)NC(=O)[C@H](CS)NC(C)=O)C(=O)N[C@@H](CC(=O)O)C(=O)NCC(=O)N[C@@H](CS)C(=O)N[C@@H](CCC(=O)O)C(=O)N[C@@H](CC(C)C)C(N)=O (Ac-CNKSGMDGCEL-NH2)
inhibition [1]: inactive
inhibition [2]: inactive
Activity [3]: inactive
Activity [4]: inactive

CSCC[C@@H]1NC(=O)CNC(=O)[C@H](CCC(=O)O)NC(=O)[C@H](CO)NC(=O)[C@H]([C@@H](C)O)NC(=O)[C@H](CCCCN)NC(=O)[C@H](CC(N)=O)NC(=O)[C@@H](NC(C)=O)CSSC[C@@H](C(=O)N[C@@H](CCC(=O)O)C(=O)N[C@@H](CC(C)C)C(N)=O)NC(=O)CNC(=O)[C@H](CC(=O)O)NC1=O (Ac-CNKTSEGMDGCEL-NH2; disulfide 1-11)
Activity [5]: inactive
Activity [6]: inactive

CC[C@H](C)[C@H](NC(=O)CNC(C)=O)C(=O)N[C@@H](CCCCN)C(=O)N[C@@H](CCC(=O)O)C(=O)N[C@@H](CS)C(=O)N[C@@H](CCC(N)=O)C(=O)N[C@@H](Cc1ccc(O)cc1)C(=O)N[C@@H](CCC(N)=O)C(=O)N[C@@H](Cc1ccccc1)C(=O)N[C@@H](CCCNC(=N)N)C(=O)N[C@@H](Cc1c[nH]cn1)C(=O)N[C@@H](CCCNC(=N)N)C(=O)N[C@@H](CCCNC(=N)N)C(=O)N[C@@H](Cc1c[nH]c2ccccc12)C(=O)N[C@@H](CC(N)=O)C(=O)N[C@@H](CS)C(=O)N[C@@H](CO)C(=O)N[C@H](C(=O)N[C@H](C(=O)N[C@@H](CC(=O)O)C(N)=O)C(C)C)[C@@H](C)O (Ac-GIKECQYQFRHRRWNCSTVD-NH2)
Activity [7]: inactive
Activity [8]: inactive
inhibition [9]: 100%
inhibition [10]: 100%
inhibition [11]: 100%
inhibition [12]: 100%
inhibition [13]: 100%
inhibition [14]: 100%
Activity [15]: inactive
Activity [16]: inactive
Activity [17]: inactive
Activity [18]: inactive

CC(=O)NCC(=O)N[C@@H](CO)C(=O)N[C@@H](CS)C(=O)N[C@@H](CO)C(=O)N[C@@H](CC(C)C)C(=O)N[C@@H](CCCCN)C(=O)N[C@H](C(=O)N[C@@H](CS)C(=O)N[C@@H](Cc1c[nH]c2ccccc12)C(=O)N[C@@H](CC(C)C)C(=O)N[C@@H](CCC(N)=O)C(=O)N[C@@H](CC(C)C)C(=O)N[C@@H](C)C(=O)N[C@@H](CC(=O)O)C(N)=O)[C@@H](C)O (Ac-GSCSLKTCWLQLAD-NH2)
Activity [7]: inactive
Activity [8]: inactive
inhibition [9]: 100%
inhibition [10]: 100%
inhibition [11]: 100%
inhibition [12]: 100%
inhibition [13]: 100%
inhibition [14]: 100%
Activity [15]: inactive
Activity [16]: inactive
Activity [17]: inactive
Activity [18]: inactive
IC50 (Frizzled-1): 2060 nM
IC50 (Frizzled-2): 2110 nM

CC[C@H](C)[C@H](NC(C)=O)C(=O)N[C@@H](CCC(=O)O)C(=O)N[C@@H](CCC(=O)O)C(=O)N[C@@H](CS)C(=O)N[C@@H](CCC(N)=O)C(=O)N[C@@H](Cc1cnc[nH]1)C(=O)N[C@@H](CCC(N)=O)C(=O)N[C@@H](Cc1ccccc1)C(=O)N[C@@H](CCCNC(=N)N)C(=O)N[C@@H](CC(=O)O)C(=O)N[C@@H](CCCNC(=N)N)C(=O)N[C@@H](CCCNC(=N)N)C(=O)N[C@@H](Cc1c[nH]c2ccccc12)C(=O)N[C@@H](CC(N)=O)C(=O)N[C@@H](CS)C(N)=O (Ac-IEECQHQFRDRRWNC-NH2)
inhibition [1]: inactive
inhibition [2]: inactive
Activity [3]: inactive
Activity [4]: inactive

Ac-CNKTSEGMDGAEL-NH2
inhibition [19]: inactive
inhibition [20]: inactive
inhibition [21]: inactive
inhibition [22]: inactive
inhibition [23]: 67.2%
inhibition [24]: 84.9%
inhibition [25]: inactive
inhibition [26]: inactive

Ac-DLVYFELSPDFCA-NH2
inhibition [1]: inactive
inhibition [2]: inactive
Activity [3]: inactive
Activity [4]: inactive

Ac-GDWEWGECSDNI-NH2
inhibition [1]: inactive
inhibition [2]: inactive
Activity [3]: inactive
Activity [4]: inactive

Ac-GSKGTQGRACN-NH2
inhibition [1]: inactive
inhibition [2]: inactive
Activity [3]: inactive
Activity [4]: inactive

Ac-MNRHNNEAGR-NH2
inhibition [1]: inactive
inhibition [2]: inactive
Activity [3]: inactive
Activity [4]: inactive
